Values belong to the compound of their own block, whether it stands above or below them.
Tests used:
IMR-32 (Neuroblastoma) = experiment: Clonogenicity of established tumor cell lines (soft agar); format: cell-based, human; details: Homo sapiens; IMR-32 clonogenicity
Experimental: (§1) Inhibition of tumor growth was tested using cell lines as follows: […]

K562 (Erytholeukemia) = experiment: as above; format: cell-based, human; details: Homo sapiens; K562 clonogenicity
Experimental: as §1

LA1-5S (Neuroblastoma) = experiment: as above; format: cell-based, human; details: Homo sapiens; LA1-5S clonogenicity
Experimental: as §1

[1] = test system: LNCaP (Prostate Carcinoma); experiment: as above; format: cell-based, human; details: Homo sapiens; LNCaP clonogenicity
Experimental: as §1

[2] = test system: MCF7-40F (Breast Carcinoma); experiment: as above; format: cell-based, human; details: Homo sapiens; MCF7-40F clonogenicity
Experimental: as §1

[3] = test system: MCF7-WT (Breast Carcinoma); experiment: as above; format: cell-based, human; details: Homo sapiens; MCF7-WT clonogenicity
Experimental: as §1

NBAS-5 (Neuroblastoma) = experiment: as above; format: cell-based, human; details: Homo sapiens; NBAS-5 clonogenicity
Experimental: as §1

NBL-W-N (Neuroblastoma) = experiment: as above; format: cell-based, human; details: Homo sapiens; NBL-W-N clonogenicity
Experimental: as §1

PC3 (Prostate Carcinoma) = experiment: as above; format: cell-based, human; details: Homo sapiens; PC3 clonogenicity
Experimental: as §1

SK-N-MC (Neuroblastoma) = experiment: as above; format: cell-based, human; details: Homo sapiens; SK-N-MC clonogenicity
Experimental: as §1

SK-N-SH (Neuroblastoma) = experiment: as above; format: cell-based, human; details: Homo sapiens; SK-N-SH clonogenicity
Experimental: as §1

SMS-KAN (Neuroblastoma) = experiment: as above; format: cell-based, human; details: Homo sapiens; SMS-KAN clonogenicity
Experimental: as §1

[4] = test system: 53 primary tumor cell lines; experiment: Inhibition of clonogenicity of primary tumor cells; format: cell-based, human; details: Homo sapiens
Excerpt: The tested tumor cells were from 11 non-small cell lung carcinomas, 10 breast carcinomas, 10 gastric carcinomas, 10 ovarian carcinomas, and 10 CNS tumors.

[5] = test system: established tumor cell lines; experiment: Clonogenicity of established tumor cell lines, all lines together; format: cell-based, human; details: in words
Experimental: as §1

[6] = test system: P3HR-1 EBV-positive lymphoma cells; experiment: [3H]-thymidine incorporation in EBV-positive lymphoma cells; format: cell-based, human; details: combination with GC, 72 hours
Experimental: The effect of GOMB to AB was compared on EBV virus-associated tumors. EBV-positive cells from P3HR-1, a human lymphoma cell line, were incubated in growth medium with the specified concentration of GOMB, AB, ganciclovir (GC), or combination of these, for 72 hours, seeded in 96-well plates and pulsed with 1 μCi [^3 H]-thymidine/well during the last 16 hours of exposure to the compounds. Cells were harvested with a cell harvester, using glass microfiber filters. The incorporation of [^3 H]-thymidine was determined by retention of the acid insoluble fraction on filters and is expressed as CPM.

[7] = test system: Au565 breast carcinoma cells; experiment: Differentiation by lipid staining; format: cell-based, human; details: 10 μM
Excerpt: Lipid staining and/or immunochemical staining of casein can be used as a marker for cellular differentiation of breast cancer cells (Bacus et al., Md. Carcin. 3:350-362, 1990). Casein detection can be done by histochemical staining of breast cancer cells using a human antibody to human casein as described by Cheung et al., J. Clin. Invest. 75:1722-1728,which is incorporated by reference in its entirety.
In the case of the human breast carcinoma cell line Au565, 100%. Of the cells treated with 10 μM GOMB were positive for lipid staining whereas less than 1% of cells treated with the same concentration of AB were positive for lipid staining.

CFPAC cells = experiment: SRB cell proliferation assay; format: cell-based
Experimental: (§2) The inhibition of cell proliferation was measured in the indicated cancer cell lines using the sulforhoamine B (SRB) assay as described by Monks et al., J. Natl. Can. Inst. […] The SRB assay is used to screen for anti-cancer drugs.

HL-60 cells = experiment: SRB cell proliferation assay; format: cell-based; details: Homo sapiens; HL-60, SRB
Experimental: as §2

HT-29 cells = experiment: SRB cell proliferation assay; format: cell-based; details: Homo sapiens; HT-29, SRB
Experimental: as §2

MCF7 cells = experiment: SRB cell proliferation assay; format: cell-based; details: Homo sapiens
Experimental: as §2

MCF-7 cells (WAF) = experiment: Apoptosis in breast cancer cells, staining with WAF antibody / Western blot; format: cell-based, human; details: 100 μM
Experimental: Induction of apoptosis by COMB and AB in MCF-7 cells was evaluated by staining cells with the WAF antibody and by Western blot analysis as described by Bacus et al., 1996, Oncogene 12:2535-2547.

K562 cells (HbF) [8] = experiment: Hb-containing K562 cells by benzidine staining; format: cell-based, human; details: 0.05 mM, 5 days
Experimental: Hb Measurement: HB was measured by benzidine staining of K562 cells after 5 days exposure to GOMB or AB according to the procedure of Fibach et al. (1989) [full cite]. Quantitative measurement of HbF in K562 culture or human erythroid cultures was determined by ion-exchange high pressure liquid chromatography (HPLC) as described by Fibach et al., Blood 81:1630-1635, 1993.
(§3) K562 cells: K562 is an erthroblast cell line that develops some properties of erythroid, megakaryocyte or monocyte cells, depending on the specific stimulus, when induced by different chemicals. K562 cells were grown in RPMI with 10% FCS, supplemented with 2 mM glutamine. Cells were incubated at 37° C. in a humidified, 5% CO2 incubator.

K562 cells (HbF) [9] = experiment: HbF synthesis in K562 cells (ion-exchange HPLC); format: cell-based, human
Experimental: as §3

[10] = test system: β-thalassemia and sickle-cell anemia; details: β-globin disorders; cited from earlier work

SMILES: CCCC(=O)O [AB, arginine butyrate, reference compound]
IC50 (IMR-32 (Neuroblastoma)): 881 µM
IC90 (IMR-32 (Neuroblastoma)): 3570 µM
IC50 (K562 (Erytholeukemia)): 772 µM
IC50 (LA1-5S (Neuroblastoma)): 1630 µM
IC90 (LA1-5S (Neuroblastoma)): 2680 µM
IC50 [1]: 780 µM
IC90 [1]: 6700 µM
IC50 [2]: 817 µM
IC90 [2]: 3180 µM
IC50 [3]: 1500 µM
IC90 [3]: 9470 µM
IC50 (NBAS-5 (Neuroblastoma)): 883 µM
IC90 (NBAS-5 (Neuroblastoma)): 13000 µM
IC50 (NBL-W-N (Neuroblastoma)): 489 µM
IC90 (NBL-W-N (Neuroblastoma)): 3070 µM
IC50 (PC3 (Prostate Carcinoma)): 226 µM
IC50 (SK-N-MC (Neuroblastoma)): 215 µM
IC90 (SK-N-MC (Neuroblastoma)): 1310 µM
IC50 (SK-N-SH (Neuroblastoma)): 998 µM
IC90 (SK-N-SH (Neuroblastoma)): 3400 µM
IC50 (SMS-KAN (Neuroblastoma)): 1140 µM
IC90 (SMS-KAN (Neuroblastoma)): 2080 µM
IC90 [4]: 2120 µM
inhibition of cell proliferation, dose dependence [5]: inhibit cell proliferation in a dose-dependent manner
interaction with ganciclovir (GC) in inhibiting proliferation [6]: interact synergistically with GC
cells positive for lipid staining [7]: less than 1%
IC50 (CFPAC cells): > 4000 µM
IC90 (CFPAC cells): > 4000 µM
IC50 (HL-60 cells): 1640 µM
IC90 (HL-60 cells): 3460 µM
IC50 (HT-29 cells): > 4000 µM
IC90 (HT-29 cells): > 4000 µM
IC50 (MCF7 cells): > 4000 µM
IC90 (MCF7 cells): > 4000 µM
% Cells Expressing WAF (MCF-7 cells (WAF)): 23%
Percentage K562 Cells Containing HbF (K562 cells (HbF) [8]): 3 ± 2%
HbF Synthesis in K562 Cells (K562 cells (HbF) [9]; 0.01 mM): 0.96 µg/mL
HbF Synthesis in K562 Cells (K562 cells (HbF) [9]; 0.05 mM): 0.95 µg/mL
HbF Synthesis in K562 Cells (K562 cells (HbF) [9]; 0.10 mM): 1.8 µg/mL
HbF Synthesis in K562 Cells (K562 cells (HbF) [9]; 0.50 mM): 3.69 µg/mL
clinical efficacy [10]: moderate efficacy

IC50 (HL-60 cells): 39 µM
IC90 (HL-60 cells): 59.9 µM
IC50 (HT-29 cells): 144 µM
IC90 (HT-29 cells): 231 µM
IC50 (MCF7 cells): 180 µM
IC90 (MCF7 cells): 238 µM
SMILES: CCCC(=O)OCOC(=O)C(C)(C)C [AN-9, pivaloyloxymethyl butyrate]
IC50 (CFPAC cells): 55.9 µM
IC90 (CFPAC cells): 89.8 µM

Reference: patent US6130248A, “Tricarboxylic acid-containing oxyalkyl esters and uses thereof” (Bar-ILAn University, priority 1996, dated 2000)
